Test results: patent US12428406B2 (PMV Pharmaceuticals, Inc., priority 2019, dated 2025)

The compounds below were run against T1, p53 Y220C (Homo sapiens, UniProt P04637, Y220C) (assay: In vitro DNA binding activity assay (HTRF / TR-FRET): stabilization of p53 Y220C and increase of its DNA binding activity). Conditions: recombinant His-tagged p53 Y220C DNA binding domain (aa 94-312), biotin-labeled consensus DNA, incubated at 27° C. or 29° C. for 60 min.
T1 construct: The recombinant protein was a truncation mutant containing only amino acids 94-312 of p53; made in house; host or cells: E. coli
Format: biochemical
In short: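 Compound effect on DNA binding of recombinant His-p53 Y220C (E. coli) to biotin-labeled consensus DNA, expressed as SC150, the concentration giving 50% increase versus untreated. Serial 3-fold DMSO dilutions of 4.5 mM stocks; room-temperature steps of 15 then 20 min.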

T1 sequence (P04637 94-312, change not shown): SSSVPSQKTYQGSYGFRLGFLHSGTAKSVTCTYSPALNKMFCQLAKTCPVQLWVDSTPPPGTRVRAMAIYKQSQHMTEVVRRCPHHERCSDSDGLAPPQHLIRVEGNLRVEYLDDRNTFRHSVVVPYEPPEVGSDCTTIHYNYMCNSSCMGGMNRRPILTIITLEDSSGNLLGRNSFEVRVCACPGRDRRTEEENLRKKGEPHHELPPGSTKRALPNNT

SC150 (concentration of the compound required to increase the DNA binding activity by 50%) | Compound
+ (+ = 0 μM ≤ SC150 < 0.05 μM) | COC(=O)[C@H](CCC(N)=O)NC(=O)c1ccc(NCC#Cc2cc3c(N[C@@H]4CCN(C)C[C@@H]4F)cccc3n2CC(F)(F)F)c(OC)c1 [Compound 956A, methyl (2S)-4-carbamoyl-2-[(4-{[3-(4-{[(3S,4R)-3-fluoro-1-methylpiperidin-4-yl]amino}-1-(2,2,2-trifluoroethyl)-1H-indol-2-yl)prop-2-yn-1-yl]amino}-3-methoxyphenyl)formamido]butanoate]
+ (+ = 0 μM ≤ SC150 < 0.05 μM) | COc1cc(S(N)(=O)=O)ccc1NCC#Cc1cc2c(N[C@H]3CC[C@H](N4CCC5(CCOC5)CC4)CC3)cccc2n1CC(F)(F)F [Compound 411A, 3-methoxy-4-{[3-(4-{[(1R,4R)-4-{2-oxa-8-azaspiro[4.5]decan-8-yl}cyclohexyl]amino}-1-(2,2,2-trifluoroethyl)-1H-indol-2-yl)prop-2-yn-1-yl]amino}benzene-1-sulfonamide]
+ (+ = 0 μM ≤ SC150 < 0.05 μM) | COc1cc(S(N)(=O)=O)ccc1NCC#Cc1cc2c(NC3CCN(C(=O)CC#N)CC3)cccc2n1CC(F)(F)F [Compound 747A]
+++ (+++ = 0.1 μM ≤ SC150 < 0.2 μM) | COc1cc(S(C)(=O)=O)ccc1NCC#Cc1c(C)c2c(NC3CCN(C)CC3)cccc2n1CC(F)(F)F [Compound 520A, 2-{3-[(4-methanesulfonyl-2-methoxyphenyl)amino]prop-1-yn-1-yl}-3-methyl-N-(1-methylpiperidin-4-yl)-1-(2,2,2-trifluoroethyl)-1H-indol-4-amine]
+ (+ = 0 μM ≤ SC150 < 0.05 μM) | CN1CCC(Nc2cccc3c2cc(C#CCNc2ccc(S(C)(=O)=O)s2)n3CC(F)(F)F)CC1 [Compound 523A]
+ (+ = 0 μM ≤ SC150 < 0.05 μM) | CNC(=O)c1ccc(NCC#Cc2cc3c(N[C@H]4CC[C@H](N5CCC(OC)C5)CC4)cccc3n2CC(F)(F)F)c(OC)c1 (stereo partly drawn) [Compound 428A, 3-methoxy-N-methyl-4-{[3-(4-{[(1R,4R)-4-(3-methoxypyrrolidin-1-yl)cyclohexyl]amino}-1-(2,2,2-trifluoroethyl)-1H-indol-2-yl)prop-2-yn-1-yl]amino}benzamide]
+ (+ = 0 μM ≤ SC150 < 0.05 μM) | COc1cc(S(N)(=O)=O)ccc1NCC#Cc1cc2c(N[C@H]3CC[C@H](N4CC[S+]([O-])CC4)CC3)cccc2n1CC(F)(F)F [Compound 370A, 3-methoxy-4-{[3-(4-{[(1R,4R)-4-(1-oxo-1λ^4-thiomorpholin-4-yl)cyclohexyl]amino}-1-(2,2,2-trifluoro-ethyl)-1H-indol-2-yl)prop-2-yn-1-yl]amino} benzene-1-sulfonamide]
+ (+ = 0 μM ≤ SC150 < 0.05 μM) | COc1cc(S(C)(=O)=O)ccc1NCC#Cc1cc2c(NC3CCN(CC(C)OC(C)=O)CC3)cccc2n1CC(F)(F)F (stereo not shown) [Compound 567A, 1-{4-[(2-{3-[(4-methanesulfonyl-2-methoxyphenyl)amino]prop-1-yn-1-yl}-1-(2,2,2-trifluoroethyl)-1H-indol-4-yl)amino]piperidin-1-yl}propan-2-yl acetate]
+ (+ = 0 μM ≤ SC150 < 0.05 μM) | COc1cc(C(N)=O)ccc1NCC#Cc1cc2c(N[C@H]3CC[C@@H](N(C)C)CC3)cccc2n1CC(F)(F)F [Compound 613A, 3-methoxy-4-{[3-(4-{[(1S,4S)-4-(dimethylamino)cyclohexyl]amino}-1-(2,2,2-trifluoroethyl)-1H-indol-2-yl)prop-2-yn-1-yl]amino}benzamide]
+ (+ = 0 μM ≤ SC150 < 0.05 μM) | COCC(O)CN1CCC(Nc2cccc3c2cc(C#CCNc2ccc(S(C)(=O)=O)cc2OC)n3CC(F)F)CC1 (stereo not shown) [Compound 709A, 1-(4-{[1-(2,2-difluoroethyl)-2-{3-[(4-methanesulfonyl-2-methoxyphenyl)amino]prop-1-yn-1-yl}-1H-indol-4-yl]amino}piperidin-1-yl)-3-methoxypropan-2-ol]
